Experimental data from patent publication US10590115B2, “Tetrahydroquinazoline derivatives useful as anticancer agents” (PFIZER INC., priority 2018, dated 2020).

Experiments:
[1] = target: T1, KRAS G12C in MiaPaCa2 cells (Homo sapiens, UniProt P01116, G12C); experiment: MiaPaCa2 Cell Activity Assay (Raf-1 RBD capture of active Ras, MSD); assay type: cell-based; conditions: MIAPaCa-2 cells, 6 hours treatment; assay limit is 30.0 μM
T1 construct: endogenous in cells; host or cells: MiaPaCa2
Method: MiaPaCa2 Cell Activity Assay
Compounds presented in the present invention lead to the accumulation of the GDP bound Ras upon treatment of human cancer cell line.
The accumulation of the GDP-bound KRAS G12C in cellular environment was measured based on the principle that KRAS G12C only binds to its downstream kinase; Raf-1 (MAP Kinase Kinase Kinase), when in its active-GTP bound state. In this state, Ras binded to a domain of Raf-1 kinase referred to as the Ras Binding Domain (RBD).
MiaPaCa2 cells were grown in DMEM medium (Gibco 11995) supplemented with 10% fetal bovine serum and 1% penicillin/streptomycin. Cells were seeded in 96-well tissue culture plates at a density of 40,000 cells/well and allowed to attach for 16-24 hours. Test compounds were prepared as a 10 mM stock in DMSO and serially diluted in 100% DMSO using a 3-fold dilution scheme. An intermediate 5× concentrated plate in complete growth medium was made and 25 μl/well was added to the 100 μl of cells for a final concentration of 0.1% DMSO. Each concentration of exemplary compound was tested in duplicate. The negative control wells were cells with control inhibitor at 10 μM, and the positive control wells were cells without drugs, DMSO only. Plates were incubated for 6 hours at 37° C., 5% CO2. Following treatment, cells were washed 3× with ice-cold PBS and 100 μl/well ice-cold 1× Assay/Lysis. Buffer with protease inhibitors was added (25 mM HEPES, pH 7.5, 150 mM NaCl, 1% NP-40, 10 mM MgCl2, 1 mM EDTA, 2% Glycerol). Following lysis samples were frozen at −80° C.
Raf-1 RBD (LJIC-1988A1) was diluted to 100 ng/well in PBS and 5 μl/well was spot coated onto MSD high bind SECTOR plates (L15XB). Plates were incubated at room temperature for 1 hour on an orbital shaker. Plates were washed with PBS/0.05% Tween-20 and 50 μl/well of thawed lysate samples were added, followed by 50 μl of 1% MSD Blocker A in PBS/0.05% Tween-20 (R93BA). Plates were incubated for 1 hour on an orbital shaker and washed with PBS/0.05% Tween-20. 25 μl/well of Anti-pan-Ras Antibody (Cell Biolabs 244003) diluted 1:3000 was added in 1% MSD Blocker A solution and plates were incubated for 1 hour on an orbital shaker and washed with PBS/0.05% Tween-20. SULFO-TAG goat anti-mouse secondary antibody (MSD R32AC) was diluted 1:500 in MSD Blocker A solution and added at 25 μL/well. Plates were incubated for 1 hour on an orbital shaker and washed with PBS/0.05% Tween-20. 150 μl/well of Read Buffer T (MSD R92TC) diluted 1:3 in H2O was added and plates were read on a Meso Scale Discovery Sector Imager S600.
KRAS signal was normalized to maximum inhibition and DMSO control values, and IC50 values were generated using a 4 parameter fit of the dose response curve. The decrease in IC50 reflects that the exemplary compound lead to a higher level of accumulation of GDP-bound KRAS G12C than another exemplary compounds at specific timepoint of treatment of cancer cell line.

[2] = target: T2, GDP-loaded kRas (1-169) G12C, C51S, C80L, C118S (Homo sapiens, UniProt P01116, C118S/C51S/C80L/G12C); experiment: Mass Spectrometry Reactivity Assay (MSRA), covalent adduct with kRas G12C; assay type: binding; conditions: 0.5 h at room temperature; 5 μM KRas protein; typical final concentration of the compounds 10 μM
T2 construct: GDP-loaded kRas (1-169) G12C, C51S, C80L, C118S
Method: Mass Spectrometry Reactivity Assay (MSRA)
Compounds presented in the present invention covalently bind to kRas G12C using MSRA to detect a covalent adduct of the exemplary compound and kRas G12C. GDP-loaded kRas (1-169) G12C, C51S, C80L, C118S were diluted in the protein assay buffer 25 mM Hepes pH7.5, 200 mM NaCl, 5% glycerol to concentration of 5 μM and 20 μl of protein was transferred into 96-well plate. […] See K-Ras(G12C) inhibitors allosterically control GTP affinity and effector interactions; Ostrem J M, Peters U, Sos M L, Wells J A, Shokat K M; Nature. 2013, Nov. 28; 503(7477):548-51.
Exemplary compounds dissolved in DMSO were diluted 100-fold into solution containing 20 μl of 5 μM KRas protein in the 96-well plate to initiate the reaction. Mosquito (TPP Lab tech) liquid handling robot was used to add compounds to protein solution. Typical final concentration of the compounds was 10 μM. The plates were placed on a shaker for 1 min at RT, sealed and incubated at room temperature for specified time period. 5 μl of reaction mix was added to 10 μl of 0.2% formic acid stop solution and mixed well. Typical end points were 30, 120, 600 and 1440 min.
Data were collected using Waters Acquity H-class UPLC system/Xevo G2-XS TOF mass spectrometer. The protein was injected in their liquid phase onto a Bruker Microtrap protein column TR1/15109/03. The following buffers were used to set LC gradient: Buffer A: 0.2% formic acid H20; B: 0.2% formic acid CAN. The protein was eluted from the column using the following LC Gradient: 0-0.4 min, 10% B to 30% B; 0.4 min-2.4 min, to 90% B, 2.5 min, 10% B, 3 min, 10% B. Initial data analysis was performed using MaxEnt software right after data acquisition.
The standard auto processing function was used to define percentage of unmodified and modified kRas protein using MexEnt software right after data acquisition. The highest peak was defined as 100% while smaller peak as assigned the number defined by autoprocessing function. The percent of modification corresponding to modified with exemplary compound and unmodified KRas GDP-loaded kRas (1-169) G12C, C51S, C80L, C118S were exported to Xcel data analysis software.
The percent of modified protein at the defined concentration of exemplary compound was calculated using the following formula: % mod=Num of modified peak/Sum of modified+unmodified.

| Structure (SMILES) | IC50 [1] | % Modification (0.5 h) [2] |
| --- | --- | --- |
| C=CC(=O)N1CCN(c2ncnc3c2C[C@@H](C)[C@H](c2c(C)ccc4[nH]ncc24)C3)CC1 (relative stereo) [Example A4, 1-{4-[(6R,7R)-rel-6-methyl-7-(5-methyl-1H-indazol-4-yl)-5,6,7,8-tetrahydroquinazolin-4-yl]piperazin-1-yl}prop-2-en-1-one] | 1.3 µM | 53% |
| C=CC(=O)N1CCN(c2ncnc3c2C[C@@H](CO)[C@H](c2c(C)ccc4[nH]ncc24)C3)CC1 (relative stereo) [Example A7, 1-{4-[(6R,7R)-rel-6-(hydroxymethyl)-7-(5-methyl-1H-indazol-4-yl)-5,6,7,8-tetrahydroquinazolin-4-yl]piperazin-1-yl}prop-2-en-1-one] | 29.3 µM | 11% |
| C=CC(=O)N1CCN(c2ncnc3c2C[C@@H](C)[C@H](c2c(Cl)c(C)cc4[nH]ncc24)C3)CC1 (relative stereo) [Example A8, 1-{4-[(6R,7R)-rel-7-(5-chloro-6-methyl-1H-indazol-4-yl)-6-methyl-5,6,7,8-tetrahydroquinazolin-4-yl]piperazin-1-yl}prop-2-en-1-one] | 0.462 µM | 54% |
| C=CC(=O)N1CCN(c2ncnc3c2C[C@@H](C)[C@H](c2c(C)c(Cl)cc4[nH]ncc24)C3)CC1 (relative stereo) [Example A9, 1-{4-[(6R,7R)-rel-7-(6-chloro-5-methyl-1H-indazol-4-yl)-6-methyl-5,6,7,8-tetrahydroquinazolin-4-yl]piperazin-1-yl}prop-2-en-1-one] | 0.155 µM | 77% |
| C=CC(=O)N1CCN(c2ncnc3c2CC[C@@H](c2c(C)ccc4[nH]ncc24)C3)CC1 (single isomer, unassigned) [Example A2] |  | 0% |
| C=CC(=O)N1CCN(c2ncnc3c2CC[C@H](c2c(C)ccc4[nH]ncc24)C3)CC1 (single isomer, unassigned) [Example A3] | 4.15 µM | 39% |
| C=CC(=O)N1CCN(c2ncnc3c2CCC(c2c(C)ccc4[nH]ncc24)C3)CC1 (centres unmarked) [Example A1, 1-{4-[7-(5-methyl-1H-indazol-4-yl)-5,6,7,8-tetrahydroquinazolin-4-yl]piperazin-1-yl}prop-2-en-1-one] | 7.86 µM | 14% |
| C=CC(=O)N1CCN(c2ncnc3c2C[C@H](C)[C@@H](c2c(C)ccc4[nH]ncc24)C3)CC1 [Example A6, 1-{4-[(6S,7S)-6-methyl-7-(5-methyl-1H-indazol-4-yl)-5,6,7,8-tetrahydroquinazolin-4-yl]piperazin-1-yl}prop-2-en-1-one] |  | 3% |
| C=CC(=O)N1CCN(c2ncnc3c2CCC(c2c(C)ccc4[nH]ncc24)C3)[C@@H](C)C1 (stereo partly drawn) [Example B2, 1-{(3S)-3-methyl-4-[7-(5-methyl-1H-indazol-4-yl)-5,6,7,8-tetrahydroquinazolin-4-yl]piperazin-1-yl}prop-2-en-1-one] |  | 13% |

Results, then the molecule that gave them:

| IC50 [1] | % Modification (0.5 h) [2] | Structure (SMILES) |
| --- | --- | --- |
| 4.29 µM | 22% | C=CC(=O)N1CCN(c2nc(N3CCN(C)CC3)nc3c2C[C@@H](C)[C@H](c2c(C)ccc4[nH]ncc24)C3)CC1 (relative stereo) [Example F4] |
| 1 µM | 32% | C=CC(=O)N1CCN(c2nc(N3CC(CN(C)C)C3)nc3c2C[C@@H](C)[C@H](c2c(C)ccc4[nH]ncc24)C3)CC1 (relative stereo) [Example F9] |
|  | 0% | C=CC(=O)N1CCN(c2nc(N3CC(N(C)C)C3)nc3c2C[C@H](C)[C@@H](c2c(C)ccc4[nH]ncc24)C3)CC1 (single isomer, unassigned) [Example F3] |
|  | 8% | C=CC(=O)N1CCN(c2nc(N3CC(N(C)C)C3)nc3c2C[C@H](C)[C@@H](c2c(Cl)ccc4[nH]ncc24)C3)CC1 (single isomer, unassigned) [Example F11] |
|  | 0% | C=CC(=O)N1CCN(c2ncnc3c2CC[C@@H](c2cc(O)cc4ccccc24)C3)CC1 (single isomer, unassigned) [Example G2] |
| 1.11 µM | 73% | C=CC(=O)N1CCN(c2ncnc3c2CC[C@H](c2cc(O)cc4ccccc24)C3)CC1 (single isomer, unassigned) [Example G3] |
|  | 22% | C=CC(=O)N1CCN(c2nc(OCCCOC)nc3c2CCC(c2c(C)ccc4[nH]ncc24)C3)CC1 (centres unmarked) [Example C2, 1-{4-[2-(3-methoxypropoxy)-7-(5-methyl-1H-indazol-4-yl)-5,6,7,8-tetrahydroquinazolin-4-yl]piperazin-1-yl}prop-2-en-1-one] |
|  | 12% | C=CC(=O)N1CCN(c2ncnc3c2C[C@@H](C)[C@H](c2c(CO)ccc4[nH]ncc24)C3)CC1 [Example D1, 1-(4-{(6R,7R)-7-[5-(hydroxymethyl)-1H-indazol-4-yl]-6-methyl-5,6,7,8-tetrahydroquinazolin-4-yl}piperazin-1-yl)prop-2-en-1-one] |
|  | 40% | C=CC(=O)N1CCN(c2ncnc3c2C[C@@H](C)[C@H](c2c(C)cc(O)c4[nH]ncc24)C3)CC1 [Example E1, 1-{4-[(6R,7R)-7-(7-hydroxy-5-methyl-1H-indazol-4-yl)-6-methyl-5,6,7,8-tetrahydroquinazolin-4-yl]piperazin-1-yl}prop-2-en-1-one] |
|  | 16% | C=CC(=O)N1CCN(c2ncnc3c2CCC(c2c(C(F)(F)F)ccc4[nH]ncc24)C3)CC1 (centres unmarked) [Example G1, 1-(4-(7-(5-(trifluoromethyl)-1H-indazol-4-yl)-5,6,7,8-tetrahydroquinazolin-4-yl)piperazin-1-yl)prop-2-en-1-one] |
| 0.178 µM |  | C=CC(=O)N1CCN(c2nc(N3CC(NC)C3)nc3c2C[C@@H](C)[C@H](c2c(C)c(Cl)cc4[nH]ncc24)C3)CC1 [Example H1, 1-(4-{(6R,7R)-7-(6-chloro-5-methyl-1H-indazol-4-yl)-6-methyl-2-[3-(methylamino)azetidin-1-yl]-5,6,7,8-tetrahydroquinazolin-4-yl}piperazin-1-yl)prop-2-en-1-one] |
